Data on one substance can be found in US20110028360A1, “ORGANIC CORROSION INHIBITOR PACKAGE FOR ORGANIC ACIDS” (M-I DRILLING FLUIDS U.K. LIMITED, priority 2008, published 2011).

The nature of data set [1]: Bioaccumulation log Pow according to OECD 117. In kind it is physicochemical. The protocol: (§1) Propoxylated prop-2-yn-1-ol, as a raw material for the corrosion inhibitor compositions disclosed herein, was tested for ecotoxicology. Biodegradation was measured according to OECD 301B. EC50 Toxicity was measured according to ISO/DP 10253. Bioaccumulation log Pow was measured according to OECD 117.

Data set [2] can be described thus: EC50 Toxicity according to ISO/DP 10253. The protocol:
as §1

Data set [3] can be described thus: Biodegradation according to OECD 301B. The protocol: as §1

On to propoxylated prop-2-yn-1-ol, for which the “Bioaccumulation Log Pow” value in data set [1] is reported as 2. In addition, in data set [2], the Toxicity was 100 mg/L. In data set [3], the Biodegradation is 100% (OECD 301B).
